Test results as given in patent publication US12391685B2, “Inhibitors of RNA-guided nuclease target binding and uses thereof” (THE BROAD INSTITUTE, INC., priority 2018, dated 2025).
“Also recorded” adds a separate entry of the source. Read-outs that look alike come from different tables or passages of the source.

What was measured:
SpCas9:gRNA interaction = molecular target: T1, SpCas9:gRNA interaction (Streptococcus pyogenes serotype M1, UniProt Q99ZW2); assay: Fluorescence polarization assay for SpCas9-gRNA binding; parameters: species or system S. pyogenes; settings: 10-30 μM
T1 construct: made in house; host or cells: E. coli Rosetta (DE3)
Experimental: FIGS. 10A-10E—(FIG. 10A) Fluorescence polarization assay for detecting SpCas9-gRNA binding. A FITC-labeled crRNA:tracrRNA (25 nM) was titrated with an increasing amount of SpCas9 (7.5-250 nM). Error bars represent ±s.d. across technical replicates (n=3). […] An unlabeled crRNA:tracrRNA (25 nM) was pre-incubated with SpCas9 (25 nM) for 10 min before the addition of FITCcrRNA:tracrRNA (25 nM). Error bars represent ±s.d. across technical replicates (n=3). (FIG. 10C) Fluorescence polarization assay for determining the effect of BRD0539 in the SpCas9-FITCcrRNA:tracrRNA binding. SpCas9 (25 nM) was incubated with the indicated amount of BRD0539 (10-30 μM) for 15 min followed by the addition of FITC-crRNA:tracrRNA (25 nM), which was incubated for 30 min before measuring the FP signal. Error bars represent ±s.d. across technical replicates (n=3). (FIG. 10D) In vitro pulldown assay of SpCas9 by the BRD0539-biotin conjugate from WM793-SpCas9 cell lysate. Streptavidin magnetic beads pre-loaded with either BRD0539-biotin or biotin-azide were incubated with WM793-SpCas9 cell lysate for 12 h before processing the samples for western blotting. BRD0539 (20 μM) was used as a competitor. F and E represent the flow-through and eluent, respectively. […]

SpCas9 [1] = molecular target: T2, SpCas9 (Streptococcus pyogenes serotype M1, UniProt Q99ZW2); assay: eGFP-disruption assay in U2OS.eGFP.PEST cells; assay type: cell-based, S. pyogenes; parameters: host or cells: U2OS.eGFP.PEST; settings: for inhibition of SpCas9 in the eGFP-disruption assay (in words) / inhibition at 15 µM: U2OS.eGFP.PEST cells; for inhibition at 15 µM: screen of structural analogs of BRD7087, 15 μM compound
In short: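 U2OS.eGFP-PEST cells were nucleofected with SpCas9 plus eGFP Site #1 sgRNA, as plasmids or as preformed RNP (20 pmol). Compound or DMSO was present for 24 h post-transfection. Fixed cells were imaged with a nuclear counterstain, and the % GFP-negative cell population was quantified by automated microscopy.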

SpCas9 [2] = molecular target: T2, SpCas9; assay: Reversibility of SpCas9 inhibition (pulse-chase, eGFP-disruption assay); assay type: cell-based, S. pyogenes; parameters: made in house; host or cells: E. coli Rosetta (DE3); settings: 15 μM BRD0539 or SpCas9:gRNA:AcrIIA4 complex, media swap 2-24 h
Experimental: Reversal of BRD0539-mediated inhibition of SpCas9 was performed in the eGFP-disruption assay where 2×10^5 U2OS.eGFP.PEST cells were nucleofected with preformed SpCas9:gRNA complex as previously discussed. Approximately 22,000 transfected cells/well were plated in 4 replicates in a 96-well plate (Corning® 3904) along with 15 μM of BRD0539 or DMSO. For AcrIIA4 reversibility experiment, a preformed SpCas9:gRNA (10 pmol) was incubated with AcrIIA4 (5×) for 10 min and then nucleofected to U2OS.eGFP.PEST cells following the aforementioned protocol. The media were swapped with the fresh media containing no BRD0539/AcrIIA4 at the indicated time point (2-24 h) and the cells were allowed to grow until 24 h post-nucleofection. Cells were then fixed using 4% paraformaldehyde and imaged with the HCS NuclearMask™ Blue Stain (Life Technologies) as the nuclear counter-staining agent. Imaging was performed with an ImageXpress Micro automated microscope (Molecular Devices) at 10× magnification under three excitation channels (blue, green and red) acquiring nine sites per well. Images were analyzed using MetaXpress software and data were plotted using GraphPad Prism 6.

[3] = Aggregation by dynamic light scattering in PBS; settings: 40-100 μM tested

T2 sequence (Q99ZW2 whole entry): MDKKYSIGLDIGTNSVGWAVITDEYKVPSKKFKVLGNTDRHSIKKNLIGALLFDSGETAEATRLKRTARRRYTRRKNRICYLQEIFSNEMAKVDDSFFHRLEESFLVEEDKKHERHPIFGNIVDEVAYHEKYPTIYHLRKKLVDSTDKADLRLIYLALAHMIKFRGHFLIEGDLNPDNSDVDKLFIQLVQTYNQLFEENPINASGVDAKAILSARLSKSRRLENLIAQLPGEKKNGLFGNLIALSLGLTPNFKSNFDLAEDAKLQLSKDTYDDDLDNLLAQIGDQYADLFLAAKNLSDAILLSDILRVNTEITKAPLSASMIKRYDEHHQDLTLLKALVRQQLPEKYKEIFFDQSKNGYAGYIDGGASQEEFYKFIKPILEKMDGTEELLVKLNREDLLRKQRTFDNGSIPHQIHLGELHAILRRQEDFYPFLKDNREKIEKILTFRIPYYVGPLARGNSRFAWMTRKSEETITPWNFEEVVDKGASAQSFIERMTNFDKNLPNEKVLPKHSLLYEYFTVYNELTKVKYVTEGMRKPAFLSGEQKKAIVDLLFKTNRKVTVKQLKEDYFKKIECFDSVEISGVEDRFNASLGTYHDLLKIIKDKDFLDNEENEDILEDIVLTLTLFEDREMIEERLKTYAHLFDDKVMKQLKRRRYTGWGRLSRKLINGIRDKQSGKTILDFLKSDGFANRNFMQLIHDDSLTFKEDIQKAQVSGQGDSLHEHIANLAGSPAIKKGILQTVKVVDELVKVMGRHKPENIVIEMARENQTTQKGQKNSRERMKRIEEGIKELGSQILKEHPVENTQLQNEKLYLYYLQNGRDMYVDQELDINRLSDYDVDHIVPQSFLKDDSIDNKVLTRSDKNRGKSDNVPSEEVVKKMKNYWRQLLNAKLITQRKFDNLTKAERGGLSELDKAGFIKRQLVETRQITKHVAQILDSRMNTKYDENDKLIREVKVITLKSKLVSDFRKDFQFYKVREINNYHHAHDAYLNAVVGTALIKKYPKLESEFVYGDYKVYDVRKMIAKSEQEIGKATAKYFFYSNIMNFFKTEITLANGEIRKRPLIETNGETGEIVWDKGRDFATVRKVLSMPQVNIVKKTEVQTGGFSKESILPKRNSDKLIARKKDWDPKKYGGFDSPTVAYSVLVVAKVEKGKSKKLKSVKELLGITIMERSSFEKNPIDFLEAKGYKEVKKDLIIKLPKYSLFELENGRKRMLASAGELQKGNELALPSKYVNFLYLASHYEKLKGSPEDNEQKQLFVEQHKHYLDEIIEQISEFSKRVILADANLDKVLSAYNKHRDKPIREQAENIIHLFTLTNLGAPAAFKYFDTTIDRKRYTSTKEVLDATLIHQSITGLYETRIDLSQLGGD
T1 sequence (Q99ZW2 whole entry): as above

In the case of `Cc1ccc(S(=O)(=O)N2CC[C@@H]3[C@H](CO)Nc4ccc(-c5ccccc5F)cc4[C@@H]32)cc1` [BRD0539, ((3aR,4R,9bR)-8-(2-fluorophenyl)-1-tosyl-2,3,3a,4,5,9b-hexahydro-1H-pyrrolo[3,2-c]quinolin-4-yl) methanol], the “effect on SpCas9-FITC-crRNA:tracrRNA polarization signal” value (SpCas9:gRNA interaction) is reported as “did not perturb the polarization signal”, the EC50 (SpCas9 [1]; EC50, dose-dependent inhibition of SpCas9, U2OS.eGFP.PEST cells, 24 h, tested from 2.8-17.3 μM) is reported as 11.5 µM and the “inhibition of SpCas9 in the eGFP-disruption assay (in words)” value (SpCas9 [1]) is reported as “dose-dependent inhibitory activity; also recorded: able to inhibit”. The “improvement in potency over BRD7087” value (SpCas9 [1]; eGFP-disruption assay) was 1.8 fold, the EC50 (SpCas9 [1]; eGFP-disruption assay, read-out: apparent EC50) was 11 µM and the inhibition at 15 µM (SpCas9 [1]; 24 h, read-out: Average Inhibition activity) was 64.2%. The inhibition at 15 µM (SpCas9 [1]; 24 h, read-out: Inhibition activity Rep 1) was 61%, the inhibition at 15 µM (SpCas9 [1]; 24 h, read-out: Inhibition activity Rep 2) was 67.4% and the “potency among the four stereoisomers” value (SpCas9 [1]; tested from 2.5-15 μM, 24 h) was “most potent”. The “reversibility of SpCas9 inhibition (in words)” value (SpCas9 [2]) was “reversible inhibition”.

For `OC[C@H]1Nc2ccc(-c3cccc(F)c3)cc2[C@H]2[C@@H]1CCN2Cc1ccncc1` [BRD7087, ((3aR,4S,9bR)-8-(3-Fluorophenyl)-1-(pyridin-4-ylmethyl)-2,3,3a,4,5,9b-hexahydro-1H-pyrrolo[3,2-c]quinolin-4-yl) methanol], the “inhibition of SpCas9 in the eGFP-disruption assay (in words)” value (SpCas9 [1]) was “dose-dependent inhibition”, the inhibition at 10 µM (SpCas9 [1]; read-out: inhibition of SpCas9) was roughly 44% and the “concentration beyond which aggregates form” value [3] was greater than 80 µM. For the same compound, the “no detectable aggregation up to” value [3] was roughly 60 µM.
